Test system: NCI-H460 tumor
Assay: In vivo biodistribution in NCI-H460 tumor bearing mice
Design: Summary: organs / Summary: Carcass / Summary: faeces: unit not given here
Conditions: for Summary: urine: in %; for Summary: Recovery: in % (unit assumed)
In short: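 Biodistribution of 18F-labeled compounds was assessed in female NMRI (nu/nu) mice bearing NCI-H460 tumors, established by inoculating 5×10^6 cells 8 to 10 days beforehand. Each mouse received 185 kBq of the fluorinated tracer; at least n=3 animals per time point were sacrificed, organs excised, and radioactivity quantified with a γ-counter.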

## N[C@@H](CCC(Cc1ccc(OCC[18F])cc1)C(=O)O)C(=O)O (stereo partly drawn) [[^18F]-12] [(2S)-2-Amino-5-[4-(2-[^18F]fluoroethoxy)benzyl]hexanedioic acid]
0.25 h p.i.
  Pancreas uptake (% ID/g): 11.45 % ID/g
1 h p.i.
  Pancreas (% ID/g at 1 h p.i.): 3.62 % ID/g
  Tumor (% ID/g at 1 h p.i.): 6.47 % ID/g
  Urine (% ID at 1 h p.i.): 82.1 ± 7.3 % ID
  activity excreted (kidneys/urine): 82.1%
  tumor-to-pancreas ratio: 1.8
1 h post injection
  T/Blood: 33.9
  T/Muscle: 103.4
2 h p.i.
  Tumor uptake (% ID/g): 7.21 % ID/g
4 h p.i.
  Tumor uptake (% ID/g): 5.17 % ID/g
mouse, in vivo
  tumor uptake and retention (summary statement): high tumor uptake and retention
Timepoint 0.25 h
  Adrenals (% Dosis/g): 0.69 % Dosis/g
  Blood (% Dosis/g): 1.28 % Dosis/g
  Bone (% Dosis/g): 0.39 % Dosis/g
  Brain (% Dosis/g): 0.09 % Dosis/g
  Fat (% Dosis/g): 0.16 % Dosis/g
  Gallbladder (% Dosis/g): 2.53 % Dosis/g
  Heart (% Dosis/g): 0.58 % Dosis/g
  Intestine (% Dosis/g): 1.10 % Dosis/g
  Liver (% Dosis/g): 9.02 % Dosis/g
  Muscle (% Dosis/g): 0.26 % Dosis/g
  Ovaries (% Dosis/g): 1.25 % Dosis/g
  Pancreas (% Dosis/g): 11.45 % Dosis/g
  Skin (% Dosis/g): 1.58 % Dosis/g
  Spleen (% Dosis/g): 2.49 % Dosis/g
  Stomach (% Dosis/g): 3.08 % Dosis/g
  Summary: Carcass: 9.55
  Summary: organs: 36.92
  Tail (% Dosis/g): 3.02 % Dosis/g
  Thyroid (% Dosis/g): 0.78 % Dosis/g
  Tumor (% Dosis/g): 5.55 % Dosis/g
  Tumor/Tissue: Adrenals: 8.53
  Tumor/Tissue: Blood: 4.49
  Tumor/Tissue: Bone: 14.61
  Tumor/Tissue: Brain: 62.27
  Tumor/Tissue: Fat: 37.81
  Tumor/Tissue: Gallbladder: 2.19
  Tumor/Tissue: Heart: 9.67
  Tumor/Tissue: Intestine: 4.93
  Tumor/Tissue: Kidney: 0.36
  Tumor/Tissue: Liver: 0.62
  Tumor/Tissue: Lung: 3.79
  Tumor/Tissue: Muscle: 20.90
  Tumor/Tissue: Ovaries: 4.55
  Tumor/Tissue: Pancreas: 0.49
  Tumor/Tissue: Skin: 3.71
  Tumor/Tissue: Spleen: 2.27
  Tumor/Tissue: Stomach: 1.75
  Tumor/Tissue: Thyroid: 7.48
  Tumor/Tissue: Uterus: 2.31
  Uterus (% Dosis/g): 2.54 % Dosis/g
  Summary: urine: 50.49
  Summary: Recovery: 96.96
Timepoint 0.5 h
  Adrenals (% Dosis/g): 0.57 % Dosis/g
  Blood (% Dosis/g): 0.74 % Dosis/g
  Bone (% Dosis/g): 0.30 % Dosis/g
  Brain (% Dosis/g): 0.07 % Dosis/g
  Fat (% Dosis/g): 0.12 % Dosis/g
  Gallbladder (% Dosis/g): 5.25 % Dosis/g
  Heart (% Dosis/g): 0.38 % Dosis/g
  Intestine (% Dosis/g): 4.00 % Dosis/g
  Liver (% Dosis/g): 5.93 % Dosis/g
  Muscle (% Dosis/g): 0.15 % Dosis/g
  Ovaries (% Dosis/g): 1.06 % Dosis/g
  Pancreas (% Dosis/g): 9.94 % Dosis/g
  Skin (% Dosis/g): 1.08 % Dosis/g
  Spleen (% Dosis/g): 1.94 % Dosis/g
  Stomach (% Dosis/g): 4.18 % Dosis/g
  Summary: Carcass: 7.31
  Summary: faeces: 0.10
  Summary: organs: 33.35
  Tail (% Dosis/g): 1.81 % Dosis/g
  Thyroid (% Dosis/g): 0.65 % Dosis/g
  Tumor (% Dosis/g): 6.91 % Dosis/g
  Tumor/Tissue: Adrenals: 13.61
  Tumor/Tissue: Blood: 9.81
  Tumor/Tissue: Bone: 22.54
  Tumor/Tissue: Brain: 92.44
  Tumor/Tissue: Fat: 64.26
  Tumor/Tissue: Gallbladder: 1.36
  Tumor/Tissue: Heart: 20.04
  Tumor/Tissue: Intestine: 4.66
  Tumor/Tissue: Kidney: 0.79
  Tumor/Tissue: Liver: 1.27
  Tumor/Tissue: Lung: 7.67
  Tumor/Tissue: Muscle: 45.35
  Tumor/Tissue: Ovaries: 6.59
  Tumor/Tissue: Pancreas: 0.68
  Tumor/Tissue: Skin: 6.42
  Tumor/Tissue: Spleen: 3.60
  Tumor/Tissue: Stomach: 2.18
  Tumor/Tissue: Thyroid: 10.73
  Tumor/Tissue: Uterus: 5.85
  Uterus (% Dosis/g): 1.38 % Dosis/g
  Summary: urine: 57.06
  Summary: Recovery: 97.82
Timepoint 1.0 h
  Adrenals (% Dosis/g): 0.27 % Dosis/g
  Blood (% Dosis/g): 0.19 % Dosis/g
  Bone (% Dosis/g): 0.16 % Dosis/g
  Brain (% Dosis/g): 0.05 % Dosis/g
  Fat (% Dosis/g): 0.03 % Dosis/g
  Gallbladder (% Dosis/g): 8.20 % Dosis/g
  Heart (% Dosis/g): 0.11 % Dosis/g
  Intestine (% Dosis/g): 0.91 % Dosis/g
  Liver (% Dosis/g): 2.17 % Dosis/g
  Muscle (% Dosis/g): 0.07 % Dosis/g
  Ovaries (% Dosis/g): 0.79 % Dosis/g
  Pancreas (% Dosis/g): 3.62 % Dosis/g
  Skin (% Dosis/g): 0.61 % Dosis/g
  Spleen (% Dosis/g): 1.54 % Dosis/g
  Stomach (% Dosis/g): 0.94 % Dosis/g
  Summary: Carcass: 3.58
  Summary: faeces: 0.01
  Summary: organs: 12.93
  Tail (% Dosis/g): 0.41 % Dosis/g
  Thyroid (% Dosis/g): 0.29 % Dosis/g
  Tumor (% Dosis/g): 6.47 % Dosis/g
  Tumor/Tissue: Adrenals: 23.74
  Tumor/Tissue: Blood: 33.90
  Tumor/Tissue: Bone: 41.80
  Tumor/Tissue: Brain: 142.1
  Tumor/Tissue: Fat: 302.3
  Tumor/Tissue: Gallbladder: 0.88
  Tumor/Tissue: Heart: 58.14
  Tumor/Tissue: Intestine: 7.45
  Tumor/Tissue: Kidney: 3.12
  Tumor/Tissue: Liver: 2.99
  Tumor/Tissue: Lung: 18.22
  Tumor/Tissue: Muscle: 103.4
  Tumor/Tissue: Ovaries: 8.99
  Tumor/Tissue: Pancreas: 1.82
  Tumor/Tissue: Skin: 10.56
  Tumor/Tissue: Spleen: 4.32
  Tumor/Tissue: Stomach: 6.88
  Tumor/Tissue: Thyroid: 22.49
  Tumor/Tissue: Uterus: 8.25
  Uterus (% Dosis/g): 0.97 % Dosis/g
  Summary: urine: 82.05
  Summary: Recovery: 98.57
Timepoint 2.0 h
  Adrenals (% Dosis/g): 0.27 % Dosis/g
  Blood (% Dosis/g): 0.08 % Dosis/g
  Bone (% Dosis/g): 0.14 % Dosis/g
  Brain (% Dosis/g): 0.05 % Dosis/g
  Fat (% Dosis/g): 0.02 % Dosis/g
  Gallbladder (% Dosis/g): 8.93 % Dosis/g
  Heart (% Dosis/g): 0.06 % Dosis/g
  Intestine (% Dosis/g): 1.12 % Dosis/g
  Liver (% Dosis/g): 0.87 % Dosis/g
  Muscle (% Dosis/g): 0.05 % Dosis/g
  Ovaries (% Dosis/g): 0.54 % Dosis/g
  Pancreas (% Dosis/g): 1.48 % Dosis/g
  Skin (% Dosis/g): 0.43 % Dosis/g
  Spleen (% Dosis/g): 1.29 % Dosis/g
  Stomach (% Dosis/g): 0.46 % Dosis/g
  Summary: Carcass: 5.26
  Summary: faeces: 1.74
  Summary: organs: 8.77
  Tail (% Dosis/g): 1.44 % Dosis/g
  Thyroid (% Dosis/g): 0.26 % Dosis/g
  Tumor (% Dosis/g): 7.21 % Dosis/g
  Tumor/Tissue: Adrenals: 27.83
  Tumor/Tissue: Blood: 86.51
  Tumor/Tissue: Bone: 57.86
  Tumor/Tissue: Brain: 161.0
  Tumor/Tissue: Fat: 396.0
  Tumor/Tissue: Gallbladder: 0.81
  Tumor/Tissue: Heart: 126.5
  Tumor/Tissue: Intestine: 6.58
  Tumor/Tissue: Kidney: 11.24
  Tumor/Tissue: Liver: 8.46
  Tumor/Tissue: Lung: 29.67
  Tumor/Tissue: Muscle: 169.9
  Tumor/Tissue: Ovaries: 13.81
  Tumor/Tissue: Pancreas: 4.90
  Tumor/Tissue: Skin: 39.91
  Tumor/Tissue: Spleen: 5.82
  Tumor/Tissue: Stomach: 16.25
  Tumor/Tissue: Thyroid: 35.78
  Tumor/Tissue: Uterus: 15.37
  Uterus (% Dosis/g): 0.50 % Dosis/g
  Summary: urine: 83.35
  Summary: Recovery: 99.00
Timepoint 4.0 h
  Adrenals (% Dosis/g): 0.16 % Dosis/g
  Blood (% Dosis/g): 0.04 % Dosis/g
  Bone (% Dosis/g): 0.06 % Dosis/g
  Brain (% Dosis/g): 0.02 % Dosis/g
  Fat (% Dosis/g): 0.01 % Dosis/g
  Gallbladder (% Dosis/g): 6.45 % Dosis/g
  Heart (% Dosis/g): 0.04 % Dosis/g
  Intestine (% Dosis/g): 0.93 % Dosis/g
  Muscle (% Dosis/g): 0.03 % Dosis/g
  Ovaries (% Dosis/g): 0.24 % Dosis/g
  Pancreas (% Dosis/g): 0.27 % Dosis/g
  Skin (% Dosis/g): 0.37 % Dosis/g
  Spleen (% Dosis/g): 0.59 % Dosis/g
  Stomach (% Dosis/g): 0.21 % Dosis/g
  Summary: Carcass: 1.09
  Summary: faeces: 0.25
  Summary: organs: 6.12
  Tail (% Dosis/g): 0.55 % Dosis/g
  Thyroid (% Dosis/g): 0.08 % Dosis/g
  Tumor (% Dosis/g): 5.17 % Dosis/g
  Tumor/Tissue: Adrenals: 41.62
  Tumor/Tissue: Blood: 148.1
  Tumor/Tissue: Bone: 91.73
  Tumor/Tissue: Brain: 237.6
  Tumor/Tissue: Fat: 2513
  Tumor/Tissue: Gallbladder: 1.11
  Tumor/Tissue: Heart: 153.2
  Tumor/Tissue: Intestine: 5.57
  Tumor/Tissue: Kidney: 28.19
  Tumor/Tissue: Liver: 18.60
  Tumor/Tissue: Lung: 227.5
  Tumor/Tissue: Muscle: 185.7
  Tumor/Tissue: Ovaries: 21.39
  Tumor/Tissue: Pancreas: 19.41
  Tumor/Tissue: Skin: 16.05
  Tumor/Tissue: Spleen: 8.58
  Tumor/Tissue: Stomach: 24.28
  Tumor/Tissue: Thyroid: 64.78
  Tumor/Tissue: Uterus: 23.55
  Uterus (% Dosis/g): 0.21 % Dosis/g
  Summary: urine: 92.66
  Summary: Recovery: 100.1

From patent US9238631B2, “Radiolabeled amino acids for diagnostic imaging” (PIRAMAL IMAGING SA, priority 2011, dated 2016)
